Assays:
HBV [1] = details: rodent models; cited from earlier work
[2] = high doses; cited from earlier work
[3] = Cytotoxicity, Cell Proliferation Kit II (XTT) (Table 2); assay type: cell-based; details: human, HepG2 cells
HBV wild-type (WT) Cp = assay: HBV core-associated DNA by qPCR in Huh7 cells transfected with wild-type plasmid; assay type: cell-based, hepatitis B virus (HBV); details: Bay 38-7690 500 nM, DVR-56 250 nM, ZW-935 250 nM, HF9C6 4 μM
HBV Cp I105V mutant = assay: HBV core-associated DNA by qPCR in Huh7 cells transfected with Cp mutant plasmid; assay type: cell-based, hepatitis B virus (HBV); details: single dose: DVR-56 250 nM, ZW-935 250 nM, HF9C6 4 μM
From the text: (§1) The binding site for HAPs and SBAs has been found using X-ray crystallography and mutagenesis techniques. […] To probe this binding site, HBV-expressing plasmids with mutations in Cp (Y118F, T109S, T109M, T109I, I105V, I105L, and I105T) were generated (Klumpp, et al., Proc. Natl. Acad. Sci. USA 112:15196-15201, 2015).

HBV Cp T109I mutant = assay: as above; assay type: cell-based, hepatitis B virus (HBV); details: single dose: Bay 38-7690 500 nM, DVR-56 250 nM, ZW-935 250 nM, HF9C6 4 μM
From the text: as §1

HBV Cp T109S mutant = assay: as above; assay type: cell-based, hepatitis B virus (HBV); details: single dose: Bay 38-7690 500 nM, DVR-56 250 nM, ZW-935 250 nM, HF9C6 4 μM
From the text: as §1

HBV [4] = details: cited from earlier work
HBV [5] = assay: Antiviral screening / dose response, total intracellular HBV DNA by qPCR in HepAD38 cells; assay type: cell-based, hepatitis B virus (HBV); details: for SI (Selectivity Index): CC50/EC50; for SI (Selectivity Index) / EC50: Table 1; for EC50: Hepatitis B virus, HepAD38 cells, total intracellular HBV DNA as marker
Experimental: HepAD38 cells (ATCC; Ladner, et al., Antimicrob. Agents Chemother. 41:1715-1720, 1997) were maintained in tet media [Dulbecco's Modified Eagle Medium (DMEM) and 10% fetal bovine serum (FBS) plus 0.4 μg/ml tetracycline (tet) and 400 μg/ml G418 (Gibco; Gaithersburg, Md.)]. Cells were incubated at 37° C. with 5% CO2.
Total DNA from HBV-infected cells was extracted using the QIAamp DNA Blood Mini Kit (Qiagen, Germantown, Md.). […] Amplification was conducted by denaturation at 95° C. for 10 min, followed by 40 cycles of denaturation at 95° C. for 15 s and annealing/extension at 60° C. for 1 min using PerfeCTa SYBR® Green FastMix reaction cocktail (Quanta Biosciences, Beverly, Mass.). Amplification was carried out in a PIKOREAL™ Real-Time PCR System. A standard curve was generated with dilutions of the HBV genome-containing plasmid pCMV-HBV-LE-II (Tavis, et al., PLoS Pathogens 9:e1003125, 2013).
(§2) HepAD38 cells (5×10^4) were plated in 96-well plates in tet media. The next day, cells were washed 2× with PBS, and the media was replaced with complete media (DMEM, 10% FBS) containing compounds. Fresh complete media with compounds was added again after 2 days. After 2 additional days, cells were washed with PBS, trypsinized, and pelleted by centrifugation. The cell pellet was resuspended in 200 μl PBS, and DNA was extracted and analyzed as above. For dose responses, values were plotted in GraphPad Prism 5 and analyzed with the log (inhibitor) vs. normalized response—variable slope equation.
For antiviral screening, HepAD38 cells were treated with 10 μM of each hit compound, and anti-HBV activity was determined by the level of viral DNA.

[6] = Cytotoxicity with the XTT assay (Table 1); details: human, HepAD38 cells
[7] = test system: primary human hepatocytes; details: cited from earlier work
HBV [8] = assay: Cell-based anti-HBV activity of HF9C6 analogs (Table 2; HBV DNA in HepAD38 cells); details: Hepatitis B virus, Table 2, cell-based, read-out: EC50
Experimental: as §2
HepAD38 cells were seeded in 96-well plates (3×10^4 cells/well) in tet media. […] After 2 days, the media was removed, and fresh media containing compounds was added. After 2 additional days, cells were washed with PBS and lysed with 10 mM Tris (pH 7.5), 1mM EDTA, 100mM NaCl, 1% NP-40 at 37° C. for 30 min. 60 μl of lysate was added to 60 μl of 1 M NaOH, 1.5 M NaCl and incubated at RT for 5 min to denature DNA. 120 μl of 1 M Tris (pH 7.4), 2 M NaCl was added. Samples were transferred to positively charged nylon membranes (Roche) using a vacuum dot blot manifold. The wells were washed with 200 μl of 20× SSC (3M NaCl, 300 mM sodium citrate), and the DNA was UV crosslinked to the membranes. […] Membranes were incubated with CDP-STAR® chemiluminescent substrate (Roche), imaged by chemiluminescence, and quantified by densitometry. Values were plotted in GraphPad Prism 5 and analyzed with the log (inhibitor) vs. normalized response—variable slope equation.

[9] = molecular target: T1, C1502 (HBV capsid protein assembly domain dimer) (Hepatitis B virus genotype D subtype adw, UniProt P03147, R150C); assay: In vitro capsid assembly analyzed by transmission electron microscopy (TEM); assay type: biochemical; details: C1502 10 μM assembled with compound 20 μM
T1 construct: the 149 amino acid assembly domain of HBV capsid protein; made in house; host or cells: E. coli BL21 (DE3), pET11a
From the text: Capsids assembled in the presence of the carrier DMSO were spherical, ˜40 nm in diameter, and dispersed across the TEM grid.

HBV capsid protein (Cp) [10] = molecular target: T2, HBV capsid protein (Cp) (Hepatitis B virus genotype D subtype ayw, UniProt P03146); details: HepAD38 cells; concentrations up to 20 μM (~5×EC50)
HBV capsid protein (Cp) [11] = molecular target: T2, HBV capsid protein (Cp); details: HepAD38 cells; 20 μM
HepAD38 cells = assay: Cytotoxicity with the XTT assay (Table 1)

Row | Compound | CC50 [3] | suppression of viral DNA production (HBV wild-type (WT) Cp) | resistance profile, I105V mutant (HBV Cp I105V mutant) | resistance profile, T109I mutant (HBV Cp T109I mutant) | resistance profile, T109S mutant (HBV Cp T109S mutant) | SI (Selectivity Index) (HBV [5]) | EC50 (HBV [5]) | CC50 [6] | other results
1 | COC(=O)C1=C(C)NC(c2ncc(F)cc2F)=N[C@H]1c1ccc(F)cc1Cl [Bay 41-4109] |  |  |  |  |  |  |  |  | inhibition of the virus replication cycle (HBV [1]): inhibit the virus replication cycle; hepatotoxicity [2]: hepatotoxic
2 | Cc1cc(NC(=O)c2sc(N)c(C(N)=O)c2C)ccc1F [ZW-935, 5-Amino-N2-(4-fluoro-3-methylphenyl)-3-methylthiophene-2,4-dicarboxamide] | > 100 µM | 75% | does not impart significant resistance | hypersusceptibility | resistance |  |  |  | 
3 | IFN-α |  |  |  |  |  |  |  |  | virological response, share of patients (HBV [4]): < 10%
4 | Nc1ccn([C@@H]2CS[C@H](CO)O2)c(=O)n1 [Lamivudine (3TC), Lamivudine, reference compound] |  |  |  |  |  | >1,111 | 0.09 ± 0.01 µM | > 100 µM | 
5 | CCOC(=O)C1=C(CN2CCOCC2)NC(c2nccs2)=NC1c1ccc(F)cc1Br (stereo not drawn) [GLS-4, morphothiadine mesilate] |  |  |  |  |  |  |  |  | toxicity to primary human hepatocytes [7]: much less toxic
6 | Cc1c(C(=O)Nc2ccccc2)sc(N)c1C(N)=O [HF9C6] | > 100 µM | 75% | does not impart significant resistance | hypersusceptibility | resistance | >83 | 3.6 ± 0.2 µM | > 300 µM | reduction of HBV DNA (HBV [5]; HepAD38 cells treated with 10 μM, vs DMSO control): ~80%; EC50 (HBV [8]): 34 ± 0.6 µM; capsid morphology by TEM [9]: heterogeneous in shape and size, and formed large aggregates on the grid; Cp levels (Western blot) (HBV capsid protein (Cp) [10]): did not reduce Cp levels; Cp distribution/aggregation in cells (HBV capsid protein (Cp) [11]): concentrated in large foci throughout the cell; Cp nuclear localization (HBV capsid protein (Cp) [11]): excluded from the nucleus; cytotoxicity (in words) (HepAD38 cells): no observable cytotoxicity

From patent publication US10759774B2, “Inhibitors of hepatitis B virus targeting capsid assembly” (THE CURATORS OF THE UNIVERSITY OF MISSOURI, priority 2017, dated 2020)
